According to US7435740B2 (King Pharmaceuticals Research and Development, Inc., priority 2005, dated 2008):

Legend:
[1] = target: T1, human recombinant A2B adenosine receptor (Homo sapiens, UniProt P29275); assay: cAMP assay in CHO hA2B; assay type: cell-based; conditions: percentage given after the > bound; meaning not defined in the patent
T1 sequence (P29275 1-332): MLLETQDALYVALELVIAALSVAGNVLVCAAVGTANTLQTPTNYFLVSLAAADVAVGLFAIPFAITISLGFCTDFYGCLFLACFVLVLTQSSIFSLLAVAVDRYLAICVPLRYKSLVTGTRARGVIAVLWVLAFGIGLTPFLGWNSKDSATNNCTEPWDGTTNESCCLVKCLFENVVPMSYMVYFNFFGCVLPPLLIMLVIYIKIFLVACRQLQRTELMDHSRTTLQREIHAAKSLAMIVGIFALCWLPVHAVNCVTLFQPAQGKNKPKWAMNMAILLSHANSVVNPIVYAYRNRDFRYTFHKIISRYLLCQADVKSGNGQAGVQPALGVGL

[2] = target: T2, human recombinant A3 adenosine receptors (Homo sapiens, UniProt P0DMS8); assay: [3H]-MRE 3008F20 binding to hA3 receptors expressed in CHO cells; conditions: CHO cell membranes, 1 nM [3H]-MRE 3008F20; geometric mean, confidence limits in the line below; read-out: [3H] MRE3008F20 binding to hA3 receptors expressed in CHO cells Ki
T2 construct: expressed in transfected cells; host or cells: CHO cells (membranes)
T2 sequence (P0DMS8 1-318): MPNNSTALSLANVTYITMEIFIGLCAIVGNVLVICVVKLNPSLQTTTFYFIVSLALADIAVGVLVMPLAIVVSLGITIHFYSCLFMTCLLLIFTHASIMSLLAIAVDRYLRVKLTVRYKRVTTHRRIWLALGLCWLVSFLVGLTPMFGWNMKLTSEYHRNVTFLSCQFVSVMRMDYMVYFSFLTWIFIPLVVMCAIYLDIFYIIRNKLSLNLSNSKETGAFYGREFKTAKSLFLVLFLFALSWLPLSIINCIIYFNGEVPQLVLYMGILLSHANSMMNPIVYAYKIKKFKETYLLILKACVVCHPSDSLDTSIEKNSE
Method: (§1) For membrane preparation the culture medium was removed and the cells were washed with PBS and scraped off T75 flasks in ice-cold hypotonic buffer (5 mM Tris HCl, 2 mM EDTA, pH 7.4).
(§2) The cell suspension was homogenized with Polytron and the homogenate was spun for 10 min at 1,000×g. The supernatant was then centrifuged for 30 min at 100,000×g. […] Then the suspension was frozen at −80° C.
Non-specific binding was defined as binding in the presence of 1 μM MRE 3008F20 and was about 30% of total binding.
(§3) Ki=IC50/(1+[C*]/KD*), where [C*] is the concentration of the radioligand and KD* its dissociation constant.

[3] = target: human recombinant A2A adenosine receptors (Homo sapiens, UniProt P29274); assay: Radioligand binding to hA2A receptors expressed in CHO cells; conditions: percentage given after the > bound; meaning not defined in the patent
Method: as §1, §2, §3

[4] = target: T3, human recombinant A1 adenosine receptor (Homo sapiens, UniProt P30542); assay: [3H]-DPCPX binding to human A1 adenosine receptor expressed in CHO cells; conditions: percentage given after the > bound; meaning not defined in the patent
T3 sequence (P30542 1-326): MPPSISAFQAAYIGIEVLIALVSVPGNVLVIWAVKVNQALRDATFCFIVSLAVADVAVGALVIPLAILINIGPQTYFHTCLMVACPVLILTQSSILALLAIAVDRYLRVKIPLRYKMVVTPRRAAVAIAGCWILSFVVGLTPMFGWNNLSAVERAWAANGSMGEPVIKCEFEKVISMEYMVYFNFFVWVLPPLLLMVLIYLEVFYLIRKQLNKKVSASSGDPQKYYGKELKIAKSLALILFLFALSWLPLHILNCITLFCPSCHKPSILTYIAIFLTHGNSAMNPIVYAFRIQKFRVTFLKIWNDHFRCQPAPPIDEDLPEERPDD
Method: as §1, §2, §3

Sequence of human recombinant A2A adenosine receptors (P29274 whole entry): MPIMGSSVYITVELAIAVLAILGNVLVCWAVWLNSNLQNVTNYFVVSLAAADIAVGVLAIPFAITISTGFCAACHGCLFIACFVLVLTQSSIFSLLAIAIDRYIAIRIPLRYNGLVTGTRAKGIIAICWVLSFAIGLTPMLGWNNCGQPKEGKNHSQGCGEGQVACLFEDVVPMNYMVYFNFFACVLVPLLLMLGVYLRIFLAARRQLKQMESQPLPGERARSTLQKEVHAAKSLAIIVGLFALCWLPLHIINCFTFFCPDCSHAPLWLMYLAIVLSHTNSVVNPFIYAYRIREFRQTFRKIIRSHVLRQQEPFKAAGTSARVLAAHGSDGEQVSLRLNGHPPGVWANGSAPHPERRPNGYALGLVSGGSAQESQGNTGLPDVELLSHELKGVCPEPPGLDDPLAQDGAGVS

SMILES | cAMP assay in CHO hA22B, percentage in parentheses [1] [%] | Ki [2] [nM] | melting point [°C] | [3H] ZM 241385 binding to hA2A receptors, percentage in parentheses [3] [%] | [3H] DPCPX binding to hA1, percentage in parentheses [4] [%]
CCCn1c(=O)c2c(nc3[nH]c(C)c(C)n32)n(Cc2ccccc2)c1=O [Compound 25, 1-Benzyl-6,7-dimethyl-3-propyl-1H-imidazo[1,2-f]purine-2,4(3H,8H)-dione] | 82 | 36 | 259 | 92 | 84
CCCn1c(=O)c2c(nc3[nH]c(C(C)(C)C)cn32)n(Cc2ccccc2)c1=O [Compound 22, 1-Benzyl-7-tert-butyl-3-propyl-1H-imidazo[1,2-f]purine-2,4(3H,8H)-dione] | 86 | 99 | 230 | 99 | 51
CCCn1c(=O)c2c(nc3[nH]c(C4CCCCC4)cn32)n(Cc2ccccc2)c1=O [Compound 24, 1-Benzyl-7-cyclohexyl-3-propyl-1H-imidazo[1,2-f]purine-2,4(3H,8H)-dione] | 71 | 555 | 130 to 132 | 99 | 72
